Active and inactive are the calls of the source. The rule behind the calls is not given here.
Columns and labels:
[1] = biological target: T1, von Hippel-Lindau disease tumor suppressor/Androgen receptor (Homo sapiens) (UniProt P10275+P40337); assay: PROTAC activity at VHL/HiBit tagged AR in human LNCaP cells assessed as degradation of AR preincubated with epoxomicin for 3 hrs followed by compound addition and measured after 18 hrs by Nano-Glo HiBiT assay; format: cell-based
[2] = biological target: T1, von Hippel-Lindau disease tumor suppressor/Androgen receptor (Homo sapiens); assay: PROTAC activity at VHL/HiBit tagged AR in human LNCaP cells assessed as degradation of AR preincubated with MLN4924 for 3 hrs followed by compound addition and measured after 18 hrs by Nano-Glo HiBiT assay; format: cell-based
[3] = tested on: LNCaP; assay: Cytotoxicity against human LNCaP cells harbouring HiBit tagged AR assessed as reduction in cell viability measured after 16 hrs by cell titer glo assay; format: functional, cell-based
[4] = biological target: T2, von Hippel-Lindau disease tumor suppressor (Homo sapiens, UniProt P40337); assay: Inhibition of N-terminal 6his tagged human VHL (1 to 213 residues) expressed in HEK293 cells using NanoBRET NanoGlo substrate by NanoBRET assay; format: cell-based
[5] = biological target: T3, von Hippel-Lindau disease tumor suppressor/Bromodomain-containing protein 4 (Homo sapiens, UniProt O60885+P40337); assay: PROTAC activity at HiBit tagged BRD4/VHL E3 ligase in human HEK293 cells assessed as degradation of BRD4 preincubated with epoxomicin for 3 hrs followed by compound addition and measured after 18 hrs by Nano-Glo HiBiT assay; format: cell-based
[6] = tested on: HEK293; assay: Cytotoxicity against human HEK293 cells harbouring HiBit tagged BRD4 assessed as reduction in cell viability measured after 18 hrs by cell titer glo assay; format: toxicity, cell-based; conditions: hek293, 18 h
[7] = biological target: T3, von Hippel-Lindau disease tumor suppressor/Bromodomain-containing protein 4; assay: PROTAC activity at HiBit tagged BRD4/VHL E3 ligase in human HEK293 cells assessed as degradation of BRD4 incubated for 18 hrs by Nano-Glo HiBiT assay; format: cell-based
[8] = biological target: T3, von Hippel-Lindau disease tumor suppressor/Bromodomain-containing protein 4; assay: PROTAC activity at HiBit tagged BRD4/VHL E3 ligase in human HEK293 cells assessed as degradation of BRD4 preincubated with MLN4924 for 3 hrs followed by compound addition and measured after 18 hrs by Nano-Glo HiBiT assay; format: cell-based
[9] = biological target: T2, von Hippel-Lindau disease tumor suppressor; assay: Inhibition of VHL in HEK293T cells assessed as target engagement incubated for 2 hrs by Streptavidin-pull down blotting assay; format: cell-based; conditions: dose 1-100 µM

SMILES	Activity [1]	Activity [2]	Activity [3]	further results
Cc1cc([C@H](C(=O)N2C[C@H](S(=O)(=O)F)C[C@H]2C(=O)N[C@@H](CC(=O)N2CCC(C#Cc3ccc(C(=O)N[C@H]4C(C)(C)[C@H](Oc5ccc(C#N)c(C(F)(F)F)c5)C4(C)C)cc3)CC2)c2ccc(-c3scnc3C)cc2)C(C)C)on1	inactive	inactive	inactive	–
CC(=O)N[C@H](C(=O)N1C[C@H](S(=O)(=O)F)C[C@H]1C(=O)NCc1ccc(-c2scnc2C)cc1)C(C)(C)C	–	–	–	IC50 [4]: > 100 µM
COCC(COC)n1c(-c2cc(C)c(=O)n(C)c2)nc2cc(C3CCN(C(=O)COCCOCCOCCNC(=O)C[C@H](NC(=O)[C@@H]4C[C@@H](S(=O)(=O)F)CN4C(=O)[C@@H](c4cc(C)no4)C(C)C)c4ccc(-c5scnc5C)cc4)CC3)ccc21	–	–	–	Activity [5]: inactive; Activity [6]: Non-Toxic; EC50 [7]: 17.2 µM; Activity [8]: inactive
Cc1cc([C@H](C(=O)N2C[C@H](S(=O)(=O)F)C[C@H]2C(=O)N[C@@H](CC(=O)NCCOCCOCCOCCNC(=O)CCCC[C@H]2SC[C@@H]3NC(=O)N[C@@H]32)c2ccc(-c3scnc3C)cc2)C(C)C)on1	–	–	–	inhibition [9]: Dose-Dependent Effect
Cc1cc([C@H](C(=O)N2C[C@H](S(=O)(=O)F)C[C@H]2C(=O)N[C@@H](CC(=O)N2CCC(C#Cc3ccc(C(=O)N[C@H]4C(C)(C)[C@H](Oc5ccc(C#N)c(Cl)c5)C4(C)C)cc3)CC2)c2ccc(-c3scnc3C)cc2)C(C)C)on1	inactive	inactive	inactive	–

— ChEMBL document CHEMBL5620436, “Structure-Guided Design and Optimization of Covalent VHL-Targeted Sulfonyl Fluoride PROTACs” (J Med Chem, 2024)
